US7745152B2, “Method for determining genotoxicity” (priority 2004, dated 2010)
“And” between values parts separate entries of the source, which are not always exact repeats. Identical values can stand only once.

Tests used:
C2C12 cells [1] = conditions: mouse
C2C12 cells [2] = test system: C2C12 cells
Description: (§1) Three independent replicates were generated for each drug and time point. Sample processing was carried out according to protocols described in the Affymetrix Expression Analysis Technical Manual. Briefly, total RNA was isolated from cells by the acid guanidinium thiocyanate-phenol-chloroform extraction method (Trizol®, Invitrogen, Carlsbad, Calif.). Twice purified poly(A+) RNA was isolated and reverse transcribed using a T7-promoter coupled oligo(dT) primer, followed by in vitro transcription. The labeled samples were applied to the Affymetrix Murine Genome MOE430 set and were hybridized overnight at 45° C./60 rpm, washed using a FS450 Fluidics station, and scanned on a GS3000 scanner. The resulting image files were analyzed using Affymetrix software (Microarray Analysis Suite version 5.0).
(§2) To measure the effect of drug treatment on cellular gene expression, replicate data obtained from each drug and time point were compared with replicates for vehicle-matched controls using the Student t-test. The gene expression levels were Log transformed before applying the Student t-test. The fold change of the average expression level between the control and drug-treated cells was also calculated. […] A gene was considered expressed if the Affymetrix software determined that the gene was “present” in two out of the three replicates. This ensured that true expression changes were identified, and could be distinguished from background variability. Second, the calculated expression change for each of five tested drugs was at least 2 fold, and the calculated p-value for the expression change using the Student t-test was less than 0.01.

C2C12 cells [3] = test: C2C12 myogenic differentiation after MMS exposure with siRNA transfection; conditions: 75 μM MMS, 24 hours, then differentiation media, 72 hours
C2C12 cells [4] = test: Genomic assay: gene expression analysis (Affymetrix Murine Genome MOE430) in C2C12 cells induced to differentiate
Description: as §1, §2

For `COS(C)(=O)=O` [Methanesulfonate methyl ester (MMS), Methanesulfonate methyl ester], the Lowest effective dose (C2C12 cells [1]) was 0.002 µg/mL, the “Fold change in expression: Ephx1, Epoxide hydrolase 1 (microsomal xenobiotic hydrolase)” value (C2C12 cells [2]) was 2.10 fold and the “Fold change in expression: Hgf, Hepatocyte growth factor (scatter factor)” value (C2C12 cells [2]) was 2.20 fold. The “C2C12 cell differentiation into myotubes after genotoxin exposure” value (C2C12 cells [3]) was “completely inhibited”, the “Fold change in expression: 0610013D04 Rik, RIKEN cDNA” value (C2C12 cells [4]) was 2.60 fold and the “Fold change in expression: 1600013K19 Rik, RIKEN cDNA” value (C2C12 cells [4]) was 0.62 fold. The “Fold change in expression: 2610005B21 Rik, RIKEN cDNA” value (C2C12 cells [4]) was 0.53 fold, the “Fold change in expression: 2610019I03 RIK, RIKEN cDNA” value (C2C12 cells [4]) was 0.43 fold and the “Fold change in expression: 2610509G12 Rik, RIKEN cDNA” value (C2C12 cells [4]) was 0.55 fold. For the same compound, the “Fold change in expression: 2810417H13 Rik, RIKEN cDNA” value (C2C12 cells [4]) was 0.48 fold, the “Fold change in expression: 4833427G06 Rik, RIKEN cDNA” value (C2C12 cells [4]) was 3.70 fold and the “Fold change in expression: 6530401L14 Rik, RIKEN cDNA” value (C2C12 cells [4]) was 0.39 fold. For the same compound, the “Fold change in expression: 9030617O03 Rik, RIKEN cDNA” value (C2C12 cells [4]) was 2.40 fold, the “Fold change in expression: Anxa8, Annexin A8” value (C2C12 cells [4]) was 2.50 fold and the “Fold change in expression: Asflb, ASF1 anti-silencing function 1 homolog B (Saccharomyces)” value (C2C12 cells [4]) was 0.47 fold. For the same compound, the “Fold change in expression: Birc5, Baculoviral IAP repeat-containing 5” value (C2C12 cells [4]) was 0.51 fold, the “Fold change in expression: Brca1, Breast cancer 1” value (C2C12 cells [4]) was 0.47 fold and the “Fold change in expression: Calmbp1, Calmodulin binding protein 1” value (C2C12 cells [4]) was 0.30 fold. The “Fold change in expression: Capn6, Calpain 6” value (C2C12 cells [4]) was 0.60 fold, the “Fold change in expression: Ccna2, Cyclin A2” value (C2C12 cells [4]) was 0.46 fold and the “Fold change in expression: Ccng1, Cyclin G1” value (C2C12 cells [4]) was 2.40 fold. For the same compound, the “Fold change in expression: Cilp, Cartilage intermediate layer pro” value (C2C12 cells [4]) was 0.57 fold, the “Fold change in expression: Cks2, CDC28 protein kinase regulatory subunit 2” value (C2C12 cells [4]) was 0.59 fold and the “Fold change in expression: D4Ertd421e, DNA segment, Chr 4, ERATO Doi 421, expressed” value (C2C12 cells [4]) was 0.44 fold. For the same compound, the “Fold change in expression: Dda3-pending, Differential display and activated by p53” value (C2C12 cells [4]) was 3.70 fold, the “Fold change in expression: E2f7, E2F transcription factor 7” value (C2C12 cells [4]) was 0.55 fold and the “Fold change in expression: E030024M05 Rik, RIKEN cDNA” value (C2C12 cells [4]) was 2.00 fold. For the same compound, the “Fold change in expression: E130315B21 Rik, RIKEN cDNA” value (C2C12 cells [4]) was 0.64 fold, the “Fold change in expression: Fbxo5, f-box only protein 31” value (C2C12 cells [4]) was 0.42 fold and the “Fold change in expression: Foxm1, Forkhead box M1” value (C2C12 cells [4]) was 0.41 fold. The “Fold change in expression: Gmnn, Geminin” value (C2C12 cells [4]) was 0.54 fold, the “Fold change in expression: Gnpi, Glucosamine-6-phosphate deaminase” value (C2C12 cells [4]) was 1.60 fold and the “Fold change in expression: Hmgb2, High mobility group box 2” value (C2C12 cells [4]) was 0.56 fold. The “Fold change in expression: Hmgb3, High mobility group box 3” value (C2C12 cells [4]) was 0.45 fold, the “Fold change in expression: Hmmr, Hyaluronan mediated motility receptor (RHAMM)” value (C2C12 cells [4]) was 0.36 fold and the “Fold change in expression: Kifl1, Kinesin 11” value (C2C12 cells [4]) was 0.43 fold. For the same compound, the “Fold change in expression: Lek1, Leucine, glutamic acid, lysine family 1 protein” value (C2C12 cells [4]) was 0.36 fold, the “Fold change in expression: Ly6e, Lymphocyte antigen 6 complex, locus E” value (C2C12 cells [4]) was 1.80 fold and the “Fold change in expression: M-phosph1, M-phase phosphoprotein” value (C2C12 cells [4]) was 0.27 fold. For the same compound, the “Fold change in expression: MGC:32192, Mus musculus cDNA clone MGC: 32192 IMAGE: 5006129” value (C2C12 cells [4]) was 0.46 fold, the “Fold change in expression: Mad2l1, MAD2 (mitotic arrest deficient, homolog)-like 1 (yeast)” value (C2C12 cells [4]) was 0.43 fold and the “Fold change in expression: Mad3, Max dimerization protein 3” value (C2C12 cells [4]) was 0.52 fold. The “Fold change in expression: Mcm3, Minichromosome maintenance deficient 3 (Saccharomyces)” value (C2C12 cells [4]) was 0.56 fold, the “Fold change in expression: Mcmd4, Minichromosome maintenance deficient 4 homolog” value (C2C12 cells [4]) was 0.57 fold and the “Fold change in expression: Mki67, Antigen identified by MAb Ki67” value (C2C12 cells [4]) was 0.31 fold. For the same compound, the “Fold change in expression: Mmhead, Mus musculus 15 day embryo head cDNA clone” value (C2C12 cells [4]) was 3.00 fold, the “Fold change in expression: Nos3, Nitric oxide synthase 3, endothelial cell” value (C2C12 cells [4]) was 1.90 fold and the “Fold change in expression: Np95, Nuclear protein 95” value (C2C12 cells [4]) was 0.41 fold. For the same compound, the “Fold change in expression: Nusap1, Nucleolar and spindle associated protein 1” value (C2C12 cells [4]) was 0.48 fold, the “Fold change in expression: Osbp16, Oxysterol binding protein-like 6” value (C2C12 cells [4]) was 2.20 fold and the “Fold change in expression: Pbk, PDZ binding kinase” value (C2C12 cells [4]) was 0.46 fold. The “Fold change in expression: Pcna, Proliferating cell nuclear antigen” value (C2C12 cells [4]) was 0.60 fold, the “Fold change in expression: Phex, Phosphate regulating neutral endopeptidase (X chromosome)” value (C2C12 cells [4]) was 2.20 fold and the “Fold change in expression: Plf, Proliferin” value (C2C12 cells [4]) was 2.60 fold. The “Fold change in expression: Pola1, DNA polymerase alpha 1, 180 kDa” value (C2C12 cells [4]) was 0.37 fold, the “Fold change in expression: Prc1, Protein regulator of cytokinesis 1” value (C2C12 cells [4]) was 0.44 fold and the “Fold change in expression: Prelp, Proline arginine-rich end leucine-rich repeat” value (C2C12 cells [4]) was 0.19 fold. The “Fold change in expression: Prim1, DNA primase, p49 subunit” value (C2C12 cells [4]) was 0.51 fold, the “Fold change in expression: Rad51ap1, RAD51-associated protein 1” value (C2C12 cells [4]) was 0.45 fold and the “Fold change in expression: Rbl1, Retinoblastoma-like 1 (p107)” value (C2C12 cells [4]) was 0.59 fold. The “Fold change in expression: Serpine1, Ser (or Cys) proteinase inhibitor, clade E, member 1” value (C2C12 cells [4]) was 0.58 fold, the “Fold change in expression: Sesn2, Sestrin 2” value (C2C12 cells [4]) was 5.30 fold and the “Fold change in expression: Shcbp1, Shc SH2-domain binding protein 1” value (C2C12 cells [4]) was 0.37 fold. The “Fold change in expression: Slc19a2, Solute carrier family 19 (thiamine transporter), member 2” value (C2C12 cells [4]) was 2.70 fold and 2.30 fold, the “Fold change in expression: Slc35a5, Solute carrier family 35, member A5” value (C2C12 cells [4]) was 2.60 fold and the “Fold change in expression: Smc2l1, SMC2 structural maintenance of chromosomes 2-like 1” value (C2C12 cells [4]) was 0.49 fold. The “Fold change in expression: Stk18, Serine/threonine kinase 18” value (C2C12 cells [4]) was 0.49 fold, the “Fold change in expression: Tacc3, Transforming, acidic coiled-coil containing protein 3” value (C2C12 cells [4]) was 0.48 fold and the “Fold change in expression: Tagln, Transgelin (smooth muscle 22 protein)” value (C2C12 cells [4]) was 0.47 fold. For the same compound, the “Fold change in expression: Tk1, Thymidine kinase 1” value (C2C12 cells [4]) was 0.46 fold, the “Fold change in expression: Top2a, Topoisomerase (DNA) II alpha” value (C2C12 cells [4]) was 0.37 fold and the “Fold change in expression: Trp53inp1, Transformation related protein, 53 inducible nuclear protein 1” value (C2C12 cells [4]) was 2.90 fold. The “Fold change in expression: Usp30, Ubiquitin specific protease 30” value (C2C12 cells [4]) was 3.70 fold and the “Fold change in expression: Wig1, Wild-type p53-induced gene 1” value (C2C12 cells [4]) was 2.40 fold.
